# Data taken from patent US20250009769A1, “USE OF LYSOPHOSPHATIDIC ACID (LPA) IN CONTROLLING PORCINE INFECTIOUS DIARRHEA” (SICHUAN AGRICULTURAL UNIVERSITY, priority 2023, published 2025).
# Marks after values point to notes of the source that are not given here.
# Assays:
# ETEC [1] = test: Intestinal tissue morphology of piglets infected with ETEC, dietary 0.3% LPA (Example 1); type: in vivo, DLY weaned piglets; settings: for Duodenum V/C ratio / Ileum V/C ratio / Jejunum V/C ratio: villus height/crypt depth
# Experimental: (§1) 25-day-old DLY weaned piglets were selected, with an average weight of (7.24±0.07) kg.
# (§2) In the experiment, 32 piglets were divided into 4 groups with 8 replicates in each group, and the experimental period was 21 d. […] Slaughtering and sampling were conducted on the morning of day 21 of the experiment.
# ETEC challenge reduced villus height and V/C in the duodenum and ileum (P<0.05), and increased crypt depth in the ileum (P<0.05). […] Furthermore, the LPA reduced the crypt depth and increased the villus height/crypt depth (V/C) ratio in the ileum of ETEC-challenged piglets (P<0.05).
# ETEC [2] = test: Intestinal permeability of piglets infected with ETEC, dietary 0.3% LPA (Example 1); type: in vivo, DLY weaned piglets
# Experimental: as §1, §2
# [3] = design: species or system DLY weaned piglets; settings: in vivo
# Experimental: as §1, §2
# ETEC [4] = test: Diarrhea rate and diarrhea index of weaned piglets after ETEC challenge, dietary 0.3% LPA (Example 1); type: in vivo, DLY weaned piglets
# Experimental: as §1, §2
# ETEC [5] = test: Diarrhea rate caused by Escherichia coli in weaned piglets, dietary 0.2% LPA (Example 2); type: in vivo, DLY weaned piglets; settings: ETEC + LPA group: 0.2% LPA in diet
# Experimental: 21-day-old DLY weaned piglets were selected, with an average weight of (6.23±0.82) kg.
# In the experiment, 24 piglets were divided into 3 groups, each group had 8 replicates, and the experimental period was 21 d. […] Slaughtering and sampling were conducted on the morning of day 21 of the experiment.
# [6] = LPA + ETEC group: 0.3% LPA, ETEC challenge
# [7] = LPA + ETEC group: diet with 0.3% LPA, ETEC challenge on day 18
# [8] = LPA group: diet with 0.3% LPA, saline instead of ETEC
smiles,measurement,setting,value
"CCCCCCCC/C=C\CCCCCCCC(=O)OC[C@@H](O)COP(=O)([O-])[O-].[Na+].[Na+] [LPA, 1-oleoyl-sn-glycerol 3-phosphate sodium salt]",Duodenum crypt depth,ETEC [1]; [6],273.45 ± 9.78 ^ μm
same,Duodenum villus height,ETEC [1]; [6],452.55 ± 11.68^b μm
same,Ileum crypt depth,ETEC [1]; [6],170.08 ± 4.12^b μm
same,Ileum villus height,ETEC [1]; [6],378.37 ± 13.76^a μm
same,Jejunum crypt depth,ETEC [1]; [6],177.98 ± 6.30 ^ μm
same,Jejunum villus height,ETEC [1]; [6],360.56 ± 10.87 ^ μm
same,Duodenum V/C ratio,ETEC [1]; [6],1.65 ± 1.19^b
same,Ileum V/C ratio,ETEC [1]; [6],2.22 ± 3.34^b
same,Jejunum V/C ratio,ETEC [1]; [6],2.02 ± 1.73^
same,Duodenum crypt depth,"ETEC [1]; LPA group: 0.3% LPA, no ETEC",270.03 ± 8.13 μm
same,Duodenum villus height,"ETEC [1]; LPA group: 0.3% LPA, no ETEC",493.34 ± 12.43^a μm
same,Ileum crypt depth,"ETEC [1]; LPA group: 0.3% LPA, no ETEC",150.45 ± 4.89^b μm
same,Ileum villus height,"ETEC [1]; LPA group: 0.3% LPA, no ETEC",401.46 ± 13.45^a μm
same,Jejunum crypt depth,"ETEC [1]; LPA group: 0.3% LPA, no ETEC",160.98 ± 3.23 μm
same,Jejunum villus height,"ETEC [1]; LPA group: 0.3% LPA, no ETEC",377.28 ± 9.89 μm
same,Duodenum V/C ratio,"ETEC [1]; LPA group: 0.3% LPA, no ETEC",1.83 ± 1.53^a
same,Ileum V/C ratio,"ETEC [1]; LPA group: 0.3% LPA, no ETEC",2.67 ± 2.75^a
same,Jejunum V/C ratio,"ETEC [1]; LPA group: 0.3% LPA, no ETEC",2.34 ± 3.06
same,D-lactic acid,ETEC [2]; [6],1.53 ± 0.93^b mg/L
same,DAO,ETEC [2]; [6],335.62 ± 14.23^b pg/mL
same,Fluid accumulation rate,ETEC [2]; [6],1.42 ± 0.68^b
same,LPS,ETEC [2]; [6],49.13 ± 2.56^b ng/L
same,D-lactic acid,"ETEC [2]; LPA group: 0.3% LPA, no ETEC",1.69 ± 0.22^b mg/L
same,DAO,"ETEC [2]; LPA group: 0.3% LPA, no ETEC",330.43 ± 12.78^b pg/mL
same,Fluid accumulation rate,"ETEC [2]; LPA group: 0.3% LPA, no ETEC",1.32 ± 1.21^b
same,LPS,"ETEC [2]; LPA group: 0.3% LPA, no ETEC",48.23 ± 5.23^b ng/L
same,Impact on piglet growth performance,[3],no significant negative impact on piglet growth performance
same,Diarrhea index,ETEC [4]; [7],0.75 ± 0.56^b
same,Diarrhea rate,ETEC [4]; [7],37.50 ± 27.99^b %
same,Diarrhea index,ETEC [4]; [8],0.00 ± 0.00^c
same,Diarrhea rate,ETEC [4]; [8],0.00 ± 0.00^c %
same,Diarrhea index,ETEC [5]; after challenge,1.98^b
same,Diarrhea rate,ETEC [5]; after challenge,33.56 ± 0.28^b %
same,Diarrhea index,ETEC [5]; before challenge,1.68
same,Diarrhea rate,ETEC [5]; before challenge,11.86 ± 0.15^b %
